Tests used:
[1] = test system: CSPG; experiment: CSPG-neoepitope immunolabeling of injured sciatic nerve after in vivo injection; parameters: species or system rat; conditions: single injection 1 U in 2 μl, 2 mm distal to injury; 4 days (transection) or 2 days (crush)
Description: Surgical procedures for nerve transection and nerve crush experiments. All surgical procedures were performed according to Institutional Animal Care and Use Committee (IACUC) approved protocols. Young adult SPRAGUE DAWLEY rats (HARLAN Indianapolis, Ind.) were deeply anesthetized with xylazine (15 mg/kg, i.m.) followed by ketamine-HCl (110 mg/kg, i.p.). Six animals received bilateral nerve crush injuries. Sciatic nerves were exposed and then crushed with firm pressure for thirty seconds with a DUMONT #5 forceps at a site 4 mm distal to the tendon of the internal obdurator. The crush site was marked with an epineurial suture. In a separate set of experiments, eight rats received bilateral sciatic nerve transection injuries using serrated scissors. The proximal and distal stumps were […] by epineurial neurorrhaphy using 9-0 ETHILON sutures. Fibrin glue (fibrinogen and thrombin) was then applied to stabilize the union. In both injury models, the right sciatic nerves were injected 2-mm distal to the injury with chondroitinase ABC (1 U in 2 μl) (high-purity, protease-free; SIGMA CHEMICAL CO., St. Louis, Miss.). Left sciatic nerves (with the same injury as the right side) were injected with vehicle alone (0.1% bovine serum albumin in PBS). […]
Immunocytochemistry. Axonal regeneration was assessed by GAP-43 immunofluorescence and digital image analysis. […]

[2] = test system: rat sciatic nerve; experiment: Bilateral sciatic nerve transection (neurotmesis) and neurorrhaphic repair, GAP-43 axon scoring; assay type: in vivo; conditions: for axon regeneration / ingress into the distal segment vs vehicle-treated controls: 4 days after transection and repair
Description: Surgical procedures for nerve transection and nerve crush experiments. All surgical procedures were performed according to Institutional Animal Care and Use Committee (IACUC) approved protocols. Young adult SPRAGUE DAWLEY rats (HARLAN Indianapolis, Ind.) were deeply anesthetized with xylazine (15 mg/kg, i.m.) followed by ketamine-HCl (110 mg/kg, i.p.). Six animals received bilateral nerve crush injuries. Sciatic nerves were exposed and then crushed with firm pressure for thirty seconds with a DUMONT #5 forceps at a site 4 mm distal to the tendon of the internal obdurator. The crush site was marked with an epineurial suture. In a separate set of experiments, eight rats received bilateral sciatic nerve transection injuries using serrated scissors. The proximal and distal stumps were […] by epineurial neurorrhaphy using 9-0 ETHILON sutures. Fibrin glue (fibrinogen and thrombin) was then applied to stabilize the union. In both injury models, the right sciatic nerves were injected 2-mm distal to the injury with chondroitinase ABC (1 U in 2 μl) (high-purity, protease-free; SIGMA CHEMICAL CO., St. Louis, […].). Left sciatic nerves (with the same injury as the right side) were injected with vehicle alone (0.1% bovine serum albumin in PBS). Muscle incisions were sutured and the skin closed with metal clips. After recovery from the anesthetic, animals were returned to standard housing. Two days (for crush injury) and four days (for transection injury) after surgery, nerves were removed under anesthesia and fixed as described below. One of the eight animals receiving nerve transection and repair was excluded because loss of continuity in one nerve occurred during convalescence.
The hypothesis that chondroitinase treatment improves axonal growth through the site of nerve coaptation was tested. Bilateral neurotmesis was achieved by a scissor cut of the sciatic nerves which were then repaired by epineurial suture and fibrin glue. One nerve was injected with chondroitinase ABC and the contralateral nerve received vehicle alone. Because of the latency of regeneration after nerve transection, axonal growth across the coaptation was examined four days after injury. In control nerves, the ingress of axons occurred mainly in patches and was limited to discrete subsections of the distal nerve; otherwise only a few axons were found scattered throughout the remaining nerve cross-section, as shown in FIG. 14A. The number of axons extending farther into the distal (after 4 days) rapidly diminished and approached zero within 3 mm from the coaptation. In contrast, axon ingress into chondroitinase-treated nerves was more robust and widespread throughout the entire nerve cross-section. In 7/7 animals, the number of axons that entered the distal nerve was greater in the chondroitinase-treated nerve than in the control nerve. […] It was clear that axon growth in all portions of the distal nerve was strictly linear and aligned with the longitudinal axis of the nerve.

chondroitinase ABC
CSPG degradation in extracellular matrix around injection site [1]: substantially, if not completely, degraded CSPG | animals in which number of axons entering distal nerve was greater than in control nerve ([2]; 4 days after injury): 7/7 | increase in axon score immediately distal to coaptation in 3/7 animals ([2]; 4 days after injury, 3/7 animals): greater than 3.5 fold | score of axons immediately distal to the coaptation vs control ([2]; 4 days after injury, average): two-fold greater | axon regeneration / ingress into the distal segment vs vehicle-treated controls [2]: significantly greater | axon regeneration / ingress into the distal segment vs vehicle-treated controls ([2]; listed as chondroitinase): increased several-fold

— patent US8986733B2, “Materials and methods for nerve repair” (University of Florida Research Foundation, Inc., priority 2001, dated 2015)
